Assay results taken from US20250032403A1, “COMPOSITIONS FOR TREATING PERIODONTAL DISEASES” (GR Biosystems, Inc., priority 2017, published 2025).

Key:
HGF-1 cells = assay: Cell viability of HGF-1 cells incubated with deferoxamine; type: cell-based, human; conditions: HGF-1, deferoxamine 50, 100, 150 μM
Method: To better characterize the effectiveness of an iron chelator in regulating the upregulation of MMPs, HGF-1 cells were incubated with varying therapeutically relevant concentrations of deferoxamine (50, 100, 150 μM).

Human MMP-8; MMP8 = conditions: HGF-1, 100 μM FAC, FIG. 17
Method: (§1) Gene expression of MMPs was evaluated after treatment with CMK and deferoxamine. Tissue culture was washed with 1×PBS prior to collection of samples. Cells were lysed and RNA purified using an RNeasy mini kit (Cat #74104) from Qiagen. RNA prep Kit was used according to manufacturer's protocol. All samples were treated with Qiagen DNase (Cat #79254). One microgram of RNA was used for reverse transcription and subsequent SYBR® Green real time PCR for the genes of interest as previously described. Reverse transcription kits (Cat #330401) and SYBR Green real-time PCR master mixes (Cat #330523) were purchased from Qiagen (Louisville, KY).
(§2) The following primers and probes were used: Human MMP-2; MMP2 (Cat #PPH00151B), Human MMP-8; MMP8 (Cat #PPH00908C), Human MMP-13; MMP13 (Cat #PPH00121B), Human MMP-14; MMP14 (Cat #PPH00198C), and Human glyceraldehyde 3-phosphate dehydrogenase; GAPDH (Cat #PPH00150F).
(§3) FIG. 17 is a summary of the qPCR analysis for each MMP.

MMPs = conditions: HGF-1, 100 μM FAC, FIG. 17
Method: as §1, §2, §3

MMP-13 = conditions: HGF-1, FAC 20, 50 and 100 μM, 48 hours, FIG. 8
Method: (§4) MMP inhibition was tested using CMK and deferoxamine (DES). Ferric ammonium citrate solid (FAC, Amresco) was prepared in 1 mM hydrochloric acid to form a 50 mM stock solution. Iron solutions were freshly made for each experiment and the iron content quantified through a colorimetric assay. Cells were induced with FAC concentrations of 20, 50, and 100 μM, LPS and CMK or a combination, and the cells were allowed to grow in the incubator for 48 hours.
(§5) During the protein extraction, media was collected, flash frozen and saved for later analysis, including Western Blot and ELISA. Cells were washed with cold PBS and lysed with RIPA buffer (150 mM NaCl, 50 mM Tris, 1% Sodium deoxycholate, 1% Triton X-100 and 0.1% SDS). Cells were collected with a cell scraper and centrifuged at 14000 rpms for 30 minutes. The supernatant was collected and assayed for protein concentration. Samples were mixed with 4×SDS loading buffer (40% Glycerol, 8% SDS, 200 mM Tris-HCl, 400 mM dithiothreitol, 0.005% bromophenol blue) for further analysis.
(§6) Gel electrophoresis was conducted using 12% sodium dodecyl sulfate (SDS) and polyacrylamide gels. Equal amounts (30-50 μg) of protein were loaded in each lane and allowed to separate for 1 hour at 150 V.
(§7) Proteins from gels were transferred into 0.45 μm nitrocellulose paper (Bio-Rad) using tris-glycine transfer buffer with 20% methanol using 400 mAmp for 90 minutes. […]

MMP-14 = assay: Western blot of MMP-14 in HGF-1 cells treated with FAC, CMK or deferoxamine; type: cell-based, human; conditions: HGF-1, FAC 20, 50 and 100 μM, 48 hours, FIG. 9
Method: as §4, §5, §6, §7

MMP-3 = type: cell-based, human; conditions: HGF-1 stimulated with FAC 20, 50 and 100 μM, 48 hours, FIG. 11
Method: MMP inhibition was tested using CMK and deferoxamine (DES).
The supernatant was collected and assayed for protein concentration.

MMP-2 = assay: Western blot of MMP-2 in HGF-1 cells treated with FAC, CMK or deferoxamine; type: cell-based, human; conditions: HGF-1, FAC 20, 50 and 100 μM, 48 hours, FIG. 7
Method: as §4, §5, §6, §7

MMP-9 = assay: Western blot of MMP-9 in HGF-1 cells treated with FAC or deferoxamine; type: cell-based, human; conditions: HGF-1 stimulated with FAC 20, 50 and 100 μM, 48 hours, FIG. 10
Method: as §4, §5, §6, §7

Row | Molecule | Cell viability (HGF-1 cells) | MMP-8 gene expression (qPCR) (Human MMP-8; MMP8) | gene expression of the MMPs (qPCR) (MMPs) | presence of MMP-13 protein (MMP-13) | presence of MMP-14 protein (MMP-14) | MMP-3 protein expression (MMP-3) | presence of MMP-2 protein (MMP-2) | MMP-9 protein expression (MMP-9)
1 | CC(=O)N(O)CCCCCNC(=O)CCC(=O)N(O)CCCCCNC(=O)CCC(=O)N(O)CCCCCN [deferoxamine] | unaffected |  |  |  |  |  |  | 
2 | Ferric ammonium citrate [FAC] |  | except for MMP-8 | acted as an inducer of gene expression of the MMPs | dose-dependent increased presence | dose-dependent increased presence | increased expression | dose-dependent increased presence | increased expression
